Values of other authors as cited in PMC6789782, “Safety Pharmacological Evaluation of the Coffee Component, Caffeoylquinic Acid, and Its Metabolites, Using Ex Vivo and In Vitro Profiling Assays” (Pharmaceuticals, 2019).

Tested on: GI transit and gastric emptying
Details: rats; dose-dependent manner; cited from earlier work

In the case of `COc1cc(/C=C/C(=O)O)ccc1O` [FA, ferulic acid], the “Effect on GI transit and gastric emptying” value is listed as “significantly accelerates”.
